Reference: PMC4564450, “Oral and inhaled p38 MAPK inhibitors: effects on inhaled LPS challenge in healthy subjects” (European Journal of Clinical Pharmacology, 2015)

Key:
[1] = tested on: IL-6, MCP-1, MIP1β, CC16, fibrinogen and CRP levels in plasma; test: Inhaled LPS challenge: plasma protein biomarkers; type: in vivo, human; details: study 2
Description: Blood samples were obtained in studies 2 and 3 to obtain plasma measurements of IL-6, MCP-1, MIP1β, CC16, fibrinogen and CRP levels; pre-dose and 6 h post-LPS samples were used for statistical analysis. This coincided with the timings of sputum measurements of inflammation biomarkers.
Systemic biomarkers were analysed using a similar mixed effects model; these models also adjusted for pre-dose baseline values, which were obtained 24 h prior to LPS challenge in study 2 and 30 min prior to LPS challenge in study 3.

[2] = healthy subjects; ref previous phase 1 studies (unpublished); cited from earlier work
[3] = Safety: treatment emergent adverse events; type: in vivo, human
Description: Safety was assessed in these studies by physical examinations, haematology and biochemistry measurements, ECG analysis and reporting of any adverse events.
Summary of Number ofSubjects Experiencing Treatment EmergentAdverse Events by MedDRA System Organ Class

[4] = tested on: phospho-HSP27 expression in sputum macrophages; test: Immunocytochemistry of sputum macrophages: phospho-HSP27; type: in vivo, human; details: study 2; PH-797804 30 mg oral or PF-03715455 20 mg inhaled; Post-LPS
Description: (§1) Frozen cytospins created from sputum cells were analysed for phosphorylated-Heat Shock Protein 27 (phospho-HSP27) and phospho-p38 expression in sputum macrophages. The methods are fully described in the online supplement. Phospho-p38 and phospho-HSP27 immunoreactivity is presented as percentage of the macrophage population. All analyses were carried out by blinded observers.
Frozen cytospins created from sputum cells were thawed and the cells were fixed in 4% paraformaldehyde in PBS for 10 minutes at room temperature, followed by blocking in normal serum. […] Phospho-p38 and phospho-HSP27 were detected using biotinylated goat anti-rabbit IgG secondary antibody (Vector Labs, Peterborough, UK) in conjunction with an avidin–biotin peroxidase complex (Vector Labs) and 3,3’-diaminobenzidine (DAB) substrate. […]
Digital micrographs were obtained through the use of a Nikon Eclipse 80i microscope (Nikon UK Ltd, Surrey, UK) equipped with a QImaging digital camera (Media cybernetics, Marlow, UK) and ImageProPlus 5.1 software (Media Cybernetics). Sputum macrophages (determined by morphology) were analysed for phospho-p38 and phospho-HSP27 expression following single label immunohistochemistry utilising the ImagePro Plus image analysis software; at least 200 macrophages per cytospin were counted. […]

[5] = tested on: sputum neutrophils and macrophages after inhaled LPS; test: Inhaled LPS challenge in healthy subjects: induced sputum cell counts; type: in vivo, human; details: for Macrophage Differential in sputum, difference between the active treatment mean and the placebo mean: footnote: difference, not ratio
Description: Three randomised, double-blind, placebo-controlled crossover studies were performed; the effects of a single dose of active treatment was investigated in all three studies. […] Studies 2 and 3 were conducted at two UK centres: Quintiles Drug Research Unit, London, and Medicines Evaluation Unit, Manchester. […] The studies were performed during the following time periods: study 1, Sep 2006–Mar 2008; study 2, Jan 2011–Dec 2011; and study 3, Jul 2011–Jan 2012. The design of all three studies was similar. A baseline sputum sample was obtained within 14 days of the first study period when subjects were administered a single dose of randomised treatment. […] Induced sputum was obtained 6 h later to coincide with the maximal inflammatory response caused by inhaled LPS. […] This criterion was used to ensure that sputum cell counts after LPS challenge had returned to close to the original baseline values; this was done to reduce data variability between treatment periods. […] For each challenge, a 1-mg vial of lyophilised LPS (Escherichia coli serotype O26:B6, ref. L-2654, Sigma-Aldrich, Dorset, UK) was diluted with 4 mL of 0.9 % w/v sodium chloride. The reconstitution produced a 0.25 mg/mL solution, of which 2 mL was placed into the pre-calibrated dosimeter pot and administered via five inhalations from a breath-activated dosimeter (Mefar dosimeter MB3, Brescia, Italy). Each inhalation was performed over 3 s with a 6-s breath hold. […] Sputum was induced using normal saline after inhalation of salbutamol, and processing was performed using dithiothreitol (DTT) as previously described. The supernatants were stored at −80 °C for later analysis, while cells were used to produce cytoslides (Cytospin 4, Shandon, Runcorn, UK) for differential cell counting and immunocytochemistry. […] Cell viability was analysed by trypan blue exclusion. Cytoslides with % squamous cell counts <20 % were deemed to be of acceptable quality for differential cell counting. Unfixed cytoslides were wrapped in aluminium foil and stored frozen at −80 °C for immunocytochemistry. Sputum neutrophil percentage was the primary endpoint for all three studies. The neutrophil percentage was modelled using a mixed effects analysis of covariance (ANCOVA) model appropriate for a two-period, two-treatment or three-period, three-treatment crossover design. The fixed effects in the model were treatment and period. Subjects were modelled as a random effect. Additionally, the period-specific baseline was modelled as a covariate. This model was used for all sputum inflammatory markers, including the immunohistocytochemistry, where cell counts were log transformed before analyzing the data and percent differentials were not transformed. […] Ninety percent confidence intervals of the difference (non-transformed data) or the ratio (log-transformed data) were constructed based on the ANCOVA model.

[6] = tested on: IL-8 production from epithelial cells; design: method as in Pfizer, data on file; details: ref Pfizer, data on file; cited from earlier work
[7] = tested on: phospho-p38 expression in sputum macrophages; test: Immunocytochemistry of sputum macrophages: phospho-p38; type: in vivo, human; details: study 2
Description: as §1
Frozen cytospins created from sputum cells were thawed and the cells were fixed in 4% paraformaldehyde in PBS for 10 minutes at room temperature, followed by blocking in normal serum. Cytospins were then incubated with the following primary antibodies overnight at 4 °C; anti-human phosphorylated-p38 (phospho-p38) MAPK (Thr180/Tyr182) antibody (Cat No. 9211S, New England Biolabs, Herts, UK) or phosphorylated-Heat Shock Protein 27 (phospho-HSP27 [Cat No. S82, New England Biolabs]) diluted 1:50 in 1.5% normal serum with 0.5% Triton X-100 (Sigma-Aldrich). Endogenous peroxidase was quenched by incubating cytospins in 3% H2O2 in methanol (0.3% for phospho-p38). Phospho-p38 and phospho-HSP27 were detected using biotinylated goat anti-rabbit IgG secondary antibody (Vector Labs, Peterborough, UK) in conjunction with an avidin–biotin peroxidase complex (Vector Labs) and 3,3’-diaminobenzidine (DAB) substrate. Cell nuclei were counterstained with Gill’s haematoxylin (Sigma-Aldrich). Omission of primary antibody in staining protocol was used as a negative control.
Digital micrographs were obtained through the use of a Nikon Eclipse 80i microscope (Nikon UK Ltd, Surrey, UK) equipped with a QImaging digital camera (Media cybernetics, Marlow, UK) and ImageProPlus 5.1 software (Media Cybernetics). Sputum macrophages (determined by morphology) were analysed for phospho-p38 and phospho-HSP27 expression following single label immunohistochemistry utilising the ImagePro Plus image analysis software; at least 200 macrophages per cytospin were counted. Phospho-p38 and phospho-HSP27 immunoreactivity was presented as percentage of the macrophage population. All analysis was carried out by blinded observers.

[8] = PH-797804 30 mg oral or PF-03715455 20 mg inhaled, 6 hrs post LPS
[9] = study 2, PF-03715455 20mg (n=27), PH-797804 30mg (n=23)
[10] = study 2, PH-797804 30 mg oral or PF-03715455 20 mg inhaled, post LPS, ANCOVA model mean
[11] = study 2, post LPS, listed as PF-03715445

With CC(C)(C)c1cc(NC(=O)NCc2ccccc2Sc2ccc3nnc(-c4ccccc4SCCO)n3c2)n(-c2ccc(O)c(Cl)c2)n1 [PF-03715455] the “plasma IL-6, MCP-1, MIP1β and CC16 compared to placebo” value ([1]; PF-03715455 20 mg inhaled, 6 h post-LPS challenge) was “statistically significant reductions”, the “Plasma CC16, mean” value [1, 8] was 10.19 ng/mL and the “Plasma CRP, mean” value [1, 8] was 475.90 ng/mL. For the same molecule, the “Plasma Fibrinogen, mean” value [1, 8] was 2340.40 µg/mL, the “Plasma IL-6, mean” value [1, 8] was 14.43 pg/mL and the “Plasma MCP-1, mean” value [1, 8] was 340.30 pg/mL. For the same molecule, the “Plasma MIP-1β, mean” value [1, 8] was 71.55 pg/mL, the “time of maximum systemic concentration (tmax)” value [2] was about 30 min and the safety and tolerability ([3]; single doses, healthy subjects, studies 1 and 2) was “safe and generally well tolerated”. For the same molecule, the “Number of subjects with treatment emergent AE: Eye Disorders” value [3, 9] was 0, the “Number of subjects with treatment emergent AE: Gastrointestinal Disorders” value [3, 9] was 2 and the “Number of subjects with treatment emergent AE: General Disorders and Administration Site Conditions” value [3, 9] was 3. For the same molecule, the “Number of subjects with treatment emergent AE: Immune system disorders” value [3, 9] was 0, the “Number of subjects with treatment emergent AE: Injury, Poisoning and Procedural Complications” value [3, 9] was 0 and the “Number of subjects with treatment emergent AE: Musculoskeletal and Connective tissue disorders” value [3, 9] was 0. The “Number of subjects with treatment emergent AE: Nervous system disorders” value [3, 9] was 5, the “Number of subjects with treatment emergent AE: Respiratory, thoracic and mediastinal disorders” value [3, 9] was 2 and the “Number of subjects with treatment emergent AE: Skin and subcutaneous tissue disorders” value [3, 9] was 1. For the same molecule, the “Number of subjects with treatment emergent AE: Vascular disorders” value [3, 9] was 1, the “Number of subjects with treatment emergent AE: Psychiatric disorders” value ([3]; study 2, PF-03715455 20mg (n=27), PH-797804 30mg (n=23), hangover (PF-03715455), loss of libido and insomnia (PH-797804)) was 1 and the AE requiring withdrawal ([3]; study 2, one subject, 5 days after dosing, investigator did not consider it related) was “cellulitis”. The “mean percentage of macrophages expressing phospho-HSP27” value [4] was 26.89%, the “attenuation of the modelled LPS response (sputum neutrophil percentage)” value ([5]; PH-797804: studies 1 and 2, PF-03715455: study 2) was “approximately 25%” and the “reduction in mean sputum neutrophil percentage post-LPS compared to placebo” value ([5]; study 2, PH-797804 30 mg oral (p = 0.0001) or PF-03715455 20 mg inhaled (p = 0.031), single dose) was 8.0%. The “Mean (SD) sputum neutrophil percentage” value ([5]; study 2, PH-797804 30 mg oral or PF-03715455 20 mg inhaled, single dose, 6 h post-LPS) was 66.4 (14.0) %, the “Macrophage Differential in sputum” value [5, 10] was 30.78% and the “Total Cell Count in sputum” value [5, 10] was 3.83e+06 g⁻¹. The “Total Macrophage Count in sputum” value [5, 10] was 1.09e+06 g⁻¹, the “Total Neutrophil Count in sputum” value [5, 10] was 2.43e+06 g⁻¹ and the “Total Cell Count in sputum, Ratio of Means active/placebo” value ([5]; study 2, post LPS) was 1.02. The “Total Macrophage Count in sputum, Ratio of Means active/placebo” value ([5]; study 2, post LPS) was 1.62, the “Total Neutrophil Count in sputum, Ratio of Means active/placebo” value ([5]; study 2, post LPS) was “no effects” and the “Macrophage Differential in sputum, difference between the active treatment mean and the placebo mean” value ([5]; study 2, post LPS) was “significantly attenuated”. For the same molecule, the “Macrophage Differential in sputum, difference between the active treatment mean and the placebo mean” value [5, 11] was 7.97%, the “Total Neutrophil Count in sputum, Ratio of Means active/placebo” value [5, 11] was 0.85 and the “IL-8 production from epithelial cells” value [6] was “significantly inhibit”. For the same molecule, the “attenuation of the baseline measurements (macrophages expressing phospho-P38 and phospho-HSP27)” value ([7]; PF-03715455 20 mg inhaled) was 45–50% and the “mean percentage of macrophages expressing phospho-p38” value ([7]; PH-797804 30 mg oral or PF-03715455 20 mg inhaled, Post-LPS) was 25.03%.
